Assay results from patent EP4775582A1, “MACROCYCLIC COMPOUND AND ANTIBODY-DRUG CONJUGATE THEREOF” (Genfleet Therapeutics (Shanghai) Inc., priority 2023, dated 2025).
Like-named read-outs stand apart in the source and are kept apart here.

Assays:
Assay type in all cases: cell-based, human
[1] = system: AsPC-1 cells; test: 3D cell proliferation assay (CellTiter Glo-3D), AsPC-1
Protocol: (§1) The cells were digested with trypsin (containing EDTA), collected in their respective low-serum complete media containing 2% FBS (for MIA Paca-2 cell culture: DMEM + 2% FBS + 0.5% Horse serum + 1% PS), and counted. After the cell density was adjusted as required, 200 MIA PaCa-2 cells, 800 AsPC-1 cells, 800 NCI-H441 cells, or 400 NCI-H1975 cells per well were seeded into a 384-well cell culture plate, with the volume of the medium in each well being 45 µL. The cell culture plate was incubated in an incubator at 37 °C with 5% CO2 overnight. […] On the day after cell seeding, 5 µL of the 10× compound stock solution was added to each cell culture well. […] In addition to the compound-treated wells described above, cell-containing DMSO control wells (with 5 µL of the complete medium containing 1% DMSO added to each well) and cell-free medium control wells (containing 50 µL of the complete medium with 2% FBS) were also set. The culture plate was incubated in an incubator at 37 °C with 5% CO2 for another 5 days, and then 30 µL of CellTiter-Glo working solution was added to each well. The mixture was well mixed, incubated for 30 min, left to stand at room temperature for 30 min, and then transferred to a white-bottomed, opaque 384-well assay plate at 40 µL/well. […] Using an XLfit software, the IR (%) values were plotted against the logarithm of the compound concentrations, and the dose-response curves were fitted using the four-parameter method to calculate the IC50 values.

[2] = system: H441 p-ERK; test: Cell p-ERK assay (HTRF), NCI-H441 cells; details: NCI-H441 cells (KRAS G12V), 3 h incubation
Protocol: (§2) The cells were digested with trypsin (containing EDTA), collected in their corresponding complete media, and counted. The density of the cell suspensions was adjusted with their corresponding complete media, and 10000 AsPC-1 cells or 20000 NCI-H441 cells per well were seeded into a 96-well cell culture plate, with the volume of the medium in each well being 80 µL. The cell culture plate was incubated in an incubator at 37 °C with 5% CO2 overnight. […] On the day after cell seeding, 20 µL of the 5× compound stock solution was added to each cell culture well. […] In addition to the compound-treated wells described above, cell-containing DMSO control wells were also set. A complete medium containing 0.5% DMSO was added at 20 µL/well. After the mixture was well mixed, the culture plate was incubated in the incubator at 37 °C with 5% CO2 for another 3 h. The medium was then removed from the culture wells, and 50 µL of cell lysis buffer (from Advance ERK phospho-T202/Y204 kit) was added to each well. The mixture was well mixed and incubated for 30 min. Then, 16 µL of the mixture was transferred to a white-bottomed, opaque 96-well assay plate, and separately, 16 µL of cell lysis buffer was added to additional wells (serving as blank wells) in the assay plate. After the transfer was completed, 4 µL of p-ERK HTRF antibody mixture (from Advance ERK phospho-T202/Y204 kit) was added to each well of the assay plate, followed by a 4-hour incubation. […] Using an XLfit software, the IR (%) values were plotted against the logarithm of the compound concentrations, and the dose-response curves were fitted using the four-parameter method to calculate the IC50 values.

[3] = system: NCI-H441 cells; test: 3D cell proliferation assay (CellTiter Glo-3D), NCI-H441; details: NCI-H441 cells (KRAS G12V), 2% FBS, 5 days, read-out: H441 AP IC50
Protocol: as §1

[4] = system: AsPC-1 p-ERK; test: Cell p-ERK assay (HTRF), AsPC-1 cells
Protocol: as §2

[5] = Homo sapiens, ASPC1, 120 h, read-out: AsPC-1 AP IC50(nM)
[6] = Homo sapiens, ASPC1, 3 h, read-out: AsPC-1 p-ERK IC50(nM)

| Molecule | IC50 ([1]; AsPC-1 cells (KRAS G12D), 3D, 2% FBS, 5 days, read-out: AsPC-1 AP IC50) | IC50 [2] | IC50 [3] | IC50 ([4]; AsPC-1 cells (KRAS G12D), 3 h incubation, read-out: AsPC-1 p-ERK IC50) | IC50 [1, 5] | IC50 ([2]; Homo sapiens) | IC50 ([3]; Homo sapiens, 120 h) | IC50 [4, 6] |
| --- | --- | --- | --- | --- | --- | --- | --- | --- |
| (6^3S,4S,Z)-(Sa)-1^2-(5-(3-(1,4-oxazepan-4-yl)prop-1-yn-1-yl)-2-((S)-1-methoxyethyl)pyridin-3-yl)-1^1-ethyl-10,10-dimethyl-4-((5-ethyl-5-methyl-4,5-dihydroisoxazol-3-yl)amino)-6^1,6^2,6^3,6^4,6^5,6^6-hexahydro-1^1H-8-oxa-2(4,2)-thiazola-1(5,3)-indola-6(1,3)-pyridazinacycloundecaphane-5,7-dione [Compound Z173-2] | 1.61 nM | 810 pM | 1820 pM | 0.86 nM | – | – | – | – |
| CCn1c(-c2cc(C#CCN3CCCOCC3)cnc2[C@H](C)OC)c2c3cc(ccc31)-c1csc(n1)C[C@H](NC1=NOC(CC)(CC)C1)C(=O)N1CCC[C@H](N1)C(=O)OCC(C)(C)C2 (atropisomer, axis not shown; (Ra)) [Compound Z279, (6^3S,4S,Z)-(Ra)-1^2-(5-(3-(1,4-oxazepan-4-yl)prop-1-yn-1-yl)-2-((S)-1-methoxyethyl)pyridin-3-yl)-1^1-ethyl-10,10-dimethyl-4-((5,5-diethyl-4,5-dihydroisoxazol-3-yl)amino)-6^1,6^2,6^3,6^4,6^5,6^6-hexahydro-1^1H-8-oxa-2(4,2)-thiazola-1(5,3)-indola-6(1,3)-pyridazinacycloundecaphane-5,7-dione] | – | – | – | – | 6.05 nM | 1030 pM | 3260 pM | 1.83 nM |
| CCn1c(-c2cc(C#CCN3CCN(C(=O)CN)CC3)cnc2[C@H](C)OC)c2c3cc(ccc31)-c1csc(n1)[C@@H](OCCN(C)C)[C@H](NC(=O)[C@H]1[C@H](C)[C@@H]1C)C(=O)N1CCC[C@H](N1)C(=O)OCC(C)(C)C2 (atropisomer, axis not shown; (Ra)) [Compound Z165] | – | – | – | – | 10 nM | 13700 pM | 24400 pM | 10.3 nM |
| CCn1c(-c2cc(C#CCN3CCN(C)CC3)cnc2[C@H](C)OC)c2c3cc(ccc31)-c1csc(n1)C[C@H](NC(=O)[C@H]1[C@@H]3COC[C@@H]31)C(=O)N1CCC[C@H](N1)C(=O)OCC(C)(C)C2 (atropisomer, axis not shown; (Ra)) [Compound Z83, (1R,5S,6r)-N-((6^3S,4S,Z)-1^1-ethyl-(Ra)-1^2-(2-((S)-1-methoxyethyl)-5-(3-(4-methylpiperazin-1-yl)prop-1-yn-1-yl)pyridin-3-yl)-10,10-dimethyl-5,7-dioxo-6^1,6^2,6^3,6^4,6^5,6^6-hexahydro-1^1H-8-oxa-2(4,2)-thiazola-1(5,3)-indola-6(1,3)-pyridazinacycloundecaphane-4-yl)-3-oxabicyclo[3.1.0]hexane-6-carboxamide] | – | – | – | – | 0.12 nM | 420 pM | 90 pM | 0.64 nM |
| CCn1c(-c2cc(C#CCN3CCN(C(=O)CNC)CC3)cnc2[C@H](C)OC)c2c3cc(ccc31)-c1csc(n1)C[C@H](NC(=O)[C@H]1[C@@H]3COC[C@@H]31)C(=O)N1CCC[C@H](N1)C(=O)OCC(C)(C)C2 (atropisomer, axis not shown; (Ra)) [Compound Z164] | – | – | – | – | 2.59 nM | 1510 pM | 2040 pM | 2.08 nM |
| CCn1c(-c2cc(C#CCN3CCC(C#N)(CO)CC3)cnc2[C@H](C)OC)c2c3cc(ccc31)-c1csc(n1)C[C@H](NC(=O)[C@H]1[C@H](C)[C@@H]1C)C(=O)N1CCC[C@H](N1)C(=O)OCC(C)(C)C2 (atropisomer, axis not shown; (Ra)) [Compound Z23, (1r,2R,3S)-N-((6^3S,4S,Z)-(Ra)-1^2-(5-(3-(4-cyano-4-(hydroxymethyl)piperidin-1-yl)prop-1-yn-1-yl)-2-((S)-1-methoxyethyl)pyridin-3-yl)-1^1-ethyl-10,10-dimethyl-5,7-dioxo-6^1,6^2,6^3,6^4,6^5,6^6-hexahydro-1^1H-8-oxa-2(4,2)-thiazola-1(5,3)-indola-6(1,3)-pyridazinacycloundecaphane-4-yl)-2,3-dimethylcyclopropane-1-carboxamide] | – | – | – | – | 0.03 nM | 100 pM | 60 pM | 0.08 nM |
| CCn1c(-c2cc(C#CCN3CCS(=O)(=O)CC3)cnc2[C@H](C)OC)c2c3cc(ccc31)-c1csc(n1)C[C@H](NC(=O)[C@H]1[C@H](C)[C@@H]1CO)C(=O)N1CCC[C@H](N1)C(=O)OCC(C)(C)C2 (atropisomer, axis not shown; (Ra)) [Compound Z7-2, (1S,2S,3R)-N-((6^3S,4S,Z)-(Ra)-1^2-(5-(3-(1,1-dioxidothiomorpholino)prop-1-yn-1-yl)-2-((S)-1-methoxyethyl)pyridin-3-yl)-1^1-ethyl-10,10-dimethyl-5,7-dioxo-6^1,6^2,6^3,6^4,6^5,6^6-hexahydro-1^1H-8-oxa-2(4,2)-thiazola-1(5,3)-indola-6(1,3)-pyridazinacycloundecaphane-4-yl)-2-(hydroxymethyl)-3-methylcyclopropane-1-carboxamide] | – | – | – | – | 0.56 nM | 450 pM | 350 pM | 0.42 nM |

More lines, in order of falling IC50 [1, 5], values ahead:

| IC50 ([1]; AsPC-1 cells (KRAS G12D), 3D, 2% FBS, 5 days, read-out: AsPC-1 AP IC50) | IC50 [2] | IC50 [3] | IC50 ([4]; AsPC-1 cells (KRAS G12D), 3 h incubation, read-out: AsPC-1 p-ERK IC50) | IC50 [1, 5] | IC50 ([2]; Homo sapiens) | IC50 ([3]; Homo sapiens, 120 h) | IC50 [4, 6] | Molecule |
| --- | --- | --- | --- | --- | --- | --- | --- | --- |
| – | – | – | – | 0.41 nM | 130 pM | 440 pM | 0.24 nM | CCn1c(-c2cc(C#CCN3CCCN(C(=O)CO)CC3)cnc2[C@H](C)OC)c2c3cc(ccc31)-c1csc(n1)C[C@H](NC(=O)[C@H]1[C@@H]3COC[C@@H]31)C(=O)N1CCC[C@H](N1)C(=O)OCC(C)(C)C2 (atropisomer, axis not shown; (Ra)) [Compound Z19] |
| – | – | – | – | 0.31 nM | 240 pM | 350 pM | 0.42 nM | CCn1c(-c2cc(C#CCN3CCS(=O)(=O)CC3)cnc2[C@H](C)OC)c2c3cc(ccc31)-c1csc(n1)C[C@H](NC(=O)[C@@H](NC)C1CCCC1)C(=O)N1CCC[C@H](N1)C(=O)OCC(C)(C)C2 (atropisomer, axis not shown; (Ra)) [Compound Z15, (2S)-2-methylamino-2-cyclopentyl-N-((6^3S,4S,Z)-(Ra)-1^2-(5-(3-(1,1-dioxidothiomorpholino)prop-1-yn-1-yl)-2-((S)-1-methoxyethyl)pyridin-3-yl)-1^1-ethyl-10,10-dimethyl-5,7-dioxo-6^1,6^2,6^3,6^4,6^5,6^6-hexahydro-1^1H-8-oxa-2(4,2)-thiazola-1(5,3)-indola-6(1,3)-pyridazinacycloundecaphane-4-yl)acetamide] |
| – | – | – | – | 0.16 nM | 180 pM | 130 pM | 0.12 nM | CCn1c(-c2cc(C#CCN3CCCN(C(=O)CO)CC3)cnc2[C@H](C)OC)c2c3cc(ccc31)-c1csc(n1)C[C@H](NC(=O)[C@H]1[C@H](C)[C@@H]1C)C(=O)N1CCC[C@H](N1)C(=O)OCC(C)(C)C2 (atropisomer, axis not shown; (Ra)) [Compound Z10, (1r,2R,3S)-N-((6^3S,4S,Z)-1^1-ethyl-(Ra)-1^2-(5-(3-(4-(2-hydroxyacetyl)-1,4-diazepin-1-yl)prop-1-yn-1-yl)-2-((S)-1-methoxyethyl)pyridin-3-yl)-10,10-dimethyl-5,7-dioxo-6^1,6^2,6^3,6^4,6^5,6^6-hexahydro-1^1H-8-oxa-2(4,2)-thiazola-1(5,3)-indola-6(1,3)-pyridazinacycloundecaphane-4-yl)-2,3-dimethylcyclopropane-1-carboxamide] |
